# Measurements published in PubChem BioAssay AID328 (DTP/NCI, 2004).
# Where “and” joins values, the source holds several entries; their conditions need not be identical. Identical values can stand only once. Inconclusive results and toxic doses are left out.
# Test system: BDF1 mice, P388 leukemia ip, median survival T/C
# Test: NCI In Vivo Anticancer Drug Screen. Data for tumor model P388 Leukemia (intraperitoneal) in B6D2F1 (BDF1) mice
# Conditions: endpoint: median survival time, higher = longer survival
# In short: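 Steps: implant the tumour, treat one group with compound and another with vehicle, record survival, then divide treated by control.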
# [1] = dose: 50.0 mg/kg/injection, schedule: Q01DX009 (ip), vehicle: saline with Tween-80
# [2] = dose: 50.0 mg/kg/injection, schedule: Q01DX009 (ip), vehicle: saline
structure (smiles),measurement,setting,value
O=C(O)C1(C(=O)O)CC2CC=CCC2C1 (stereo unspecified),T/C,"dose: 100.0 mg/kg/injection, schedule: Q04DX003 (ip), vehicle: saline",110 % of control
same,T/C,"dose: 200.0 mg/kg/injection, schedule: Q04DX003 (ip), vehicle: saline",120 % of control
O=C(CNC(=O)Nc1n[nH]c(=S)s1)N/N=C/c1ccc2c(c1)OCO2,T/C,[1],116 % of control
same,T/C,"dose: 100.0 mg/kg/injection, schedule: Q01DX009 (ip), vehicle: saline with Tween-80",100 % of control
same,T/C,"dose: 200.0 mg/kg/injection, schedule: Q01DX009 (ip), vehicle: saline with Tween-80",98 % of control
C#CC[N+]12CN3CN(CN(C3)C1)C2,T/C,[2],123 % of control
CN(C)c1ccc(N=Cc2cc[n+](C)cc2)cc1,T/C,"dose: 12.5 mg/kg/injection, schedule: Q01DX009 (ip), vehicle: saline",104 % of control
same,T/C,"dose: 16.5 mg/kg/injection, schedule: Q01DX009 (ip), vehicle: saline",116 % of control and 122 % of control
same,T/C,"dose: 25.0 mg/kg/injection, schedule: Q01DX009 (ip), vehicle: saline",101 % of control
same,T/C,"dose: 37.5 mg/kg/injection, schedule: Q01DX009 (ip), vehicle: saline",109 % of control and 118 % of control
same,T/C,[2],118 % of control
Cc1cccc(CSc2ncnc3nc[nH]c23)n1,T/C,"dose: 25.0 mg/kg/injection, schedule: Q01DX009 (ip), vehicle: Klucel (hydroxypropylcellulose) (HPC)",100 % of control
same,T/C,"dose: 25.0 mg/kg/injection, schedule: Q04DX003 (ip), vehicle: Klucel (hydroxypropylcellulose) (HPC)",104 % of control
same,T/C,"dose: 50.0 mg/kg/injection, schedule: Q01DX009 (ip), vehicle: Klucel (hydroxypropylcellulose) (HPC)",87 % of control
same,T/C,"dose: 50.0 mg/kg/injection, schedule: Q04DX003 (ip), vehicle: Klucel (hydroxypropylcellulose) (HPC)",100 % of control
same,T/C,"dose: 100.0 mg/kg/injection, schedule: Q01DX009 (ip), vehicle: Klucel (hydroxypropylcellulose) (HPC)",91 % of control
same,T/C,"dose: 100.0 mg/kg/injection, schedule: Q04DX003 (ip), vehicle: Klucel (hydroxypropylcellulose) (HPC)",92 % of control and 104 % of control
CCCCCCCCCCCCCCCC(=O)OCC1OC(n2ccc(N)nc2=O)C(O)C1O (stereo unspecified),T/C,"dose: 0.38 mg/kg/injection, schedule: Q04DX003 (ip), vehicle: saline with Tween-80",111 % of control
same,T/C,"dose: 0.88 mg/kg/injection, schedule: Q04DX003 (ip), vehicle: saline with Tween-80",109 % of control
same,T/C,"dose: 1.5 mg/kg/injection, schedule: Q04DX003 (ip), vehicle: saline with Tween-80",152 % of control
same,T/C,"dose: 2.0 mg/kg/injection, schedule: Q04DX003 (ip), vehicle: saline with Tween-80",154 % of control
same,T/C,"dose: 3.0 mg/kg/injection, schedule: Q04DX003 (ip), vehicle: saline with Tween-80",181 % of control and 189 % of control
same,T/C,"dose: 3.13 mg/kg/injection, schedule: Q01DX009 (ip), vehicle: saline with Tween-80",272 % of control and 215 % of control
same,T/C,"dose: 6.25 mg/kg/injection, schedule: Q01DX009 (ip), vehicle: saline with Tween-80",250 % of control and 322 % of control
same,T/C,"dose: 7.5 mg/kg/injection, schedule: Q01DX009 (ip), vehicle: saline with Tween-80",186 % of control
same,T/C,"dose: 12.5 mg/kg/injection, schedule: Q01DX009 (ip), vehicle: saline with Tween-80",300 % of control and 333 % of control
same,T/C,"dose: 15.0 mg/kg/injection, schedule: Q01DX009 (ip), vehicle: saline with Tween-80",190 % of control
same,T/C,"dose: 22.0 mg/kg/injection, schedule: Q01DX009 (ip), vehicle: saline with Tween-80",272 % of control
same,T/C,"dose: 25.0 mg/kg/injection, schedule: Q01DX009 (ip), vehicle: saline with Tween-80",266 % of control and 300 % of control
same,T/C,"dose: 25.0 mg/kg/injection, schedule: Q04DX003 (ip), vehicle: saline with Tween-80",109 % of control
same,T/C,"dose: 30.0 mg/kg/injection, schedule: Q01DX009 (ip), vehicle: saline with Tween-80",104 % of control
same,T/C,"dose: 30.25 mg/kg/injection, schedule: Q01DX001 (ip), vehicle: Klucel (hydroxypropylcellulose) (HPC)",214 % of control
same,T/C,"dose: 31.75 mg/kg/injection, schedule: Q04DX002 (ip), vehicle: Klucel (hydroxypropylcellulose) (HPC)",265 % of control and 204 % of control
same,T/C,"dose: 40.0 mg/kg/injection, schedule: Q01DX001 (ip), vehicle: saline with Tween-80",171 % of control
same,T/C,"dose: 44.0 mg/kg/injection, schedule: Q04DX003 (ip), vehicle: saline sonified",275 % of control
same,T/C,[1],90 % of control
same,T/C,"dose: 50.0 mg/kg/injection, schedule: Q04DX003 (ip), vehicle: saline with Tween-80",195 % of control
same,T/C,"dose: 60.0 mg/kg/injection, schedule: Q01DX001 (ip), vehicle: saline with Tween-80",188 % of control
same,T/C,"dose: 62.5 mg/kg/injection, schedule: Q04DX002 (ip), vehicle: Klucel (hydroxypropylcellulose) (HPC)",241 % of control and 265 % of control
same,T/C,"dose: 66.0 mg/kg/injection, schedule: Q04DX003 (ip), vehicle: saline sonified",300 % of control
same,T/C,"dose: 90.0 mg/kg/injection, schedule: Q01DX001 (ip), vehicle: saline with Tween-80",197 % of control
same,T/C,"dose: 90.0 mg/kg/injection, schedule: Q04DX003 (ip), vehicle: saline with Tween-80",231 % of control (2×) and 217 % of control
same,T/C,"dose: 100.0 mg/kg/injection, schedule: Q01DX001 (ip), vehicle: saline",206 % of control
same,T/C,"dose: 100.0 mg/kg/injection, schedule: Q04DX003 (ip), vehicle: saline sonified",300 % of control
same,T/C,"dose: 100.0 mg/kg/injection, schedule: Q04DX003 (ip), vehicle: saline with Tween-80",300 % of control and 168 % of control
same,T/C,"dose: 125.0 mg/kg/injection, schedule: Q01DX001 (ip), vehicle: saline with Tween-80",392 % of control
same,T/C,"dose: 125.0 mg/kg/injection, schedule: Q04DX002 (ip), vehicle: Klucel (hydroxypropylcellulose) (HPC)",265 % of control
same,T/C,"dose: 150.0 mg/kg/injection, schedule: Q01DX001 (ip), vehicle: saline",318 % of control
same,T/C,"dose: 150.0 mg/kg/injection, schedule: Q04DX003 (ip), vehicle: saline sonified",120 % of control
same,T/C,"dose: 200.0 mg/kg/injection, schedule: Q01DX001 (ip), vehicle: saline with Tween-80",239 % of control and 196 % of control and 214 % of control
same,T/C,"dose: 200.0 mg/kg/injection, schedule: Q04DX003 (ip), vehicle: saline with Tween-80",95 % of control and 120 % of control
